From ChEMBL document CHEMBL1131998, “Synthesis and biological evaluation of 1,1-difluoro-2-(tetrahydro-3-furanyl)ethylphosphonic acids possessing a N9-purinylmethyl functional group at the ring. a new class of inhibitors for purine nucleoside phosphorylases” (Bioorg Med Chem Lett, 1999) come the findings set out here.

For assay [1], the target named is T1, Purine nucleoside phosphorylase (Homo sapiens, UniProt P00491).
T1 sequence (P00491 whole entry): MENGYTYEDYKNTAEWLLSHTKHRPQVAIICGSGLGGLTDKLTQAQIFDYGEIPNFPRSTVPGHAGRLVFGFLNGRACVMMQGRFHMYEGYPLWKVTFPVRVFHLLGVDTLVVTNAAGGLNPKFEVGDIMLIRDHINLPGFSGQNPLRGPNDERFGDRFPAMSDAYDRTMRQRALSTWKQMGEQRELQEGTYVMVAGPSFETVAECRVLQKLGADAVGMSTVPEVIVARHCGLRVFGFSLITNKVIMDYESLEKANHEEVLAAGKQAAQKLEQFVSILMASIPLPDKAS
The assay can be described thus: (§1) Compound was evaluated for inhibition of PNP-catalyzed inosine phosphorylation in human erythrocyte.

The target in assay [2] is T1, Purine nucleoside phosphorylase. The description is as §1. It is filed as functional.

What is called Ki is the dissociation constant of the complex between target and ligand, obtained from inhibition or displacement. The low end stands for higher affinity, the high end for lower affinity. In general, IC50 refers to the point on the concentration scale where inhibition reaches its midpoint. The compound `Nc1nc2c(ncn2CCCCC(F)(F)P(=O)(O)O)c(=O)[nH]1` came in with an inhibitory constant (Ki) in assay [1] of 53 nM. Moreover, it took 380 nM to reach half-maximal inhibition in assay [2] (IC50).
As for `O=P(O)(O)C(F)(F)C[C@H]1COC[C@@H]1Cn1cnc2c(O)ncnc21`, the 50% inhibitory concentration (IC50) in assay [2] worked out at 320 nM. This counts as sub-micromolar.
`O=c1[nH]cnc2c1ncn2CC[C@@H]1C[C@H]1C(F)(F)P(=O)(O)O` gave an inhibitory constant (Ki) in assay [1] of 8.8 nM. In assay [2], it took 340 nM to reach half-maximal inhibition (IC50).
The like results for `Nc1nc2c(ncn2CC[C@@H]2C[C@H]2C(F)(F)P(=O)(O)O)c(=O)[nH]1` (racemic) were, in that order, 28.2 nM and 330 nM.
The corresponding values for `O=P(O)(O)C(F)(F)C[C@H]1COC[C@H]1Cn1cnc2c(O)ncnc21` are 15.2 nM and 88 nM.
